According to patent US6465450B2, “Vanadium (IV) complexes containing catecholate ligand and having spermicidal activity” (Parker Hughes Institute, priority 1999, dated 2002):
Where two headings read alike, the source gives them in different places.

Legend:
[1] = tested on: human sperm; assay: Time course of sperm immobilization by CASA; format: cell-based; conditions: motile sperm incubated of each complex (footnote); motility by CASA at timed intervals
Protocol: […] At timed intervals (every 5 and 10 minutes) aliquots (4μl) were transferred to two 20 μm Microcell (Conception Technologies) chambers, and sperm motility was assessed by CASA.
Sperm Kinematic Parameters: For CASA, 4 μl each of sperm suspension was loaded into two 20 μm Microcell chambers placed onto a counting chamber at 37° C. At least 5-8 fieldsper chamber were scanned for analysis using a Hamilton Thorne Integrated Visual Optical System (IVOS) version 10 instrument (Hamilton Thorne Research Inc., Danvers, Mass.). Each field was recorded for 30 seconds. The Hamilton Thorne computer calibrations were set at 30 frames at a frame rate of 30 images/seconds. Other settings were as follows: minimum contrast 8; minimum size 6; low-size gate, 1.0; high-size gate, 2.9; low-intensity gate, 0.6; high-intensity gate, 1.4; phase-contrast illumination; low path velocity at 10 μm/seconds and threshold straightness at 80%; magnification factor, 1.95. The performance of the analyzer was periodically checked using the playback function. […]

[2] = tested on: human sperm; assay: Sperm immobilization assay (SIA), 3 h incubation, motility by CASA; format: cell-based; conditions: for EC50: motile fractions of human sperm incubated 3 h with increasing concentrations, 37° C., read-out: EC50 (concentration of compound required for 50% sperm motility loss)
Protocol: Sperm Immobilization Assay (SIA): To evaluate the spermicidal effects of complexes 1-4 a highly motile fraction of pooled donor sperm(n=5) was prepared by discontinuous (90-45%) Percoll gradient (Conception Technologies, San Diego, Calif.) centrifugation and the “swim-up” method as described previously (Aitken et al., 1989, Biol. Reprod. 40:183-197). All donor specimens were obtained after informed consent and in compliance with the guidelines of the Hughes Institutional Review Board. Motile sperm (≧10×10^6/ml) were suspended in 1 ml of Biggers, Whitten, and Whittingam's medium (BWW) containing 0.3% BSA (fraction V; Sigma Chemical Co., St. Louis, Mo.) in the presence and absence of serial 2-fold dilutions of test substance (250 μM -1.9 μM) in 0.25% dimethyl sulfoxide (DMSO). For each experiment, fresh stock solutions (100 mM) of vanadium compounds were prepared in DMSO. A corresponding volume of DMSO […] was added to control sperm suspension. After 3hours of incubation at 37° C., the percentage of motile sperm was evaluated by computer-assisted sperm motion analysis (CASA) as described previously (Aitken et al., 1989, Supra). The percentages of motilities were compared with those of sham-treated control suspensions of motile sperm. The spermicidal activity of test compounds was expressed as the EC50 values (the final concentration of the compound in medium that decreases the proportion of motile sperm by 50%).
Sperm Kinematic Parameters: For CASA, 4 μl each of sperm suspension was loaded into two 20 μm Microcell chambers placed onto a counting chamber at 37° C. At least 5-8 fieldsper chamber were scanned for analysis using a Hamilton Thorne Integrated Visual Optical System (IVOS) version 10 instrument (Hamilton Thorne Research Inc., Danvers, Mass.). Each field was recorded for 30 seconds. The Hamilton Thorne computer calibrations were set at 30 frames at a frame rate of 30 images/seconds. Other settings were as follows: minimum contrast 8; minimum size 6; low-size gate, 1.0; high-size gate, 2.9; low-intensity gate, 0.6; high-intensity gate, 1.4; phase-contrast illumination; low path velocity at 10 μm/seconds and threshold straightness at 80%; magnification factor, 1.95. The performance of the analyzer was periodically checked using the playback function.
The attributes of sperm kinematic parameters evaluated included numbers of motile (MOT) and progressively (PRG) motile sperm; curvilinear velocity (VCL; a measure of the total distance traveled by a given sperm during the acquisition divided by the time elapsed); average path velocity (VAP; the spatially averaged path that eliminates the wobble of the sperm head), straight-line velocity (VSL; the straight-line distance from beginning to end of track divided by time taken), beat-cross frequency (BCF; frequency of lateral head displacement), (ALH; the mean width of sperm head oscillation), and the derivatives, straightness (STR=VSL divided by VAP×100), linearity (LIN=VSL divided by VCL×100, departure of sperm track from a straight line). Data from each individual cell track were recorded and analyzed. At least 200 sperm were analyzed for each aliquot sampled.
A non-linear regression analysis was used to find the EC50 and T1/2 values (the concentration of the compound, and the time required for 50% sperm motility loss, respectively) from the concentration effect curves.

[3] = Stability of the complexes as solids or in solution (cyclic voltammetry and UV-vis spectroscopy)
Protocol: UV/Vis Spectra: A UV/vis polarizer attachment was used for the polarization experiments. UV-vis spectra were recorded in a quartz cell or cuvette on a Beckman Model DU 7400 spectrophotometer and the spectral bands were registered in the 200-800 nm range.
Electrochemical Measurements: Electrochemical measurements were performed on a Bioanalytical Systems B/W 100b electrochemical analyzer with internal resistance (IR) compensation. The cyclic voltammograms taken in acetonitrile were obtained in a 0.1 M Bu4NPF6 (TABP) electrolyte solution with a 0.1 M Ag/AgNO3 reference electrode, a Platinum Disc working electrode, and a platinum wire auxiliary electrode. Solutions were purged with nitrogen: and scanned at 200 mV/s. Aqueous cyclic voltammograms were taken in a standard PBS solution, using a Ag/AgCl reference electrode, a glassy carbon working electrode, and a platinum wire auxiliary electrode. Solutions were purged with nitrogen and scanned at 200 mV/s. All potentials were referenced to the ferrocene-ferrocinium couple (E1/2=0.185 V vs Ag/AgCl in PBS).

Molecule	T1/2 (time required for 50% sperm motility loss) [1]	EC50 [2]	other results
[O-]c1ccccc1[O-].[V+2].c1cc[cH-]c1.c1cc[cH-]c1 [Cp2V(cat) (2), Vanadocene catecholate.]	5.8 min	2400 nM	
CC(C)(C)c1cc([O-])c([O-])c(C(C)(C)C)c1.[V+4].c1cc[cH-]c1.c1cc[cH-]c1 [Cp2V(dbcat) (5), Vanadocene 1,3 ditertbutyl catecholate]			t1/2 (stability) [3]: about 2 min.
[O-]c1c([O-])c(Cl)c(Cl)c(Cl)c1Cl.[V+2].c1cc[cH-]c1.c1cc[cH-]c1 [Cp2V(catCl4) (1), Vanadocene tetrachloro catecholate]		> 250000 nM	spermicidal activity in words ([2]; in the concentration ranges examined): no spermacidal activity; solubility in water: not soluble in water; t1/2 (stability) ([3]; in acetonitrile, air, by cyclic voltammetry and UV-vis spectroscopy): about 2 hr.
Vanadocene mono-tertbutyl catecholate [Cp2V(mbcat) (3)]	5.4 min	100 nM	
Vanadocene 1,3-diisopropyl catecholate [Cp2V(dpcat) (4)]		290 nM	
